The target in the assay is myotoxic Asp-49 phospholipase A2 (PLA2) from Crotalus durissus cumanensis venom. Nature of the assay: chromogenic PLA2 assay, […] nm, 96-well plate. The format is biochemical. Conditions: substrate 4-nitro-3-octanoyloxybenzoic acid type (4N3OBA, 20 μL of 10 mM); 10 mM Tris-HCl, 10 mM CaCl2, 100 mM NaCl, pH 8.0; 37 °C; 20 μg PLA2, 30 min pre-incubation; from linear portion of the dose-r.

Here are results for one compound from publication PMC7144397 (Molecules, 2020).

Broadly, the IC50 is the concentration needed to halve the response being measured. Low values mean higher potency, high ones lower potency.

Compound `O=[N+]([O-])c1ccc(C(=S)SCc2ccccc2)cc1` [I, Benzyl 4-nitrobenzenecarbodithioate] yielded a half-maximal inhibitory concentration (IC50) of 55.6 ± 4.6 µM.
